This note sets out measurements from patent US10894817B2, “Fatty acid modified urocortin-2 analogs for the treatment of diabetes and chronic kidney disease” (priority 2016, dated 2021).

Starred links: 1 amine or outer side, 2 acyl side, 3 side chain; linkers in the order of their positions; H or OH if unused. Residues, ends and D or L forms follow the SMILES beside them. Groups on a side chain read outwards from the residue. *: point of attachment. γGlu = O=C(O)[C@H](CCC(=O)[*:2])N[*:1]; Palmitoyl = CCCCCCCCCCCCCCCC(=O)*; AEEA = NCCOCCOCC(=O)O

For this assay, the target named is T1, human CRHR2b (Homo sapiens, UniProt Q13324).
T1 construct: expressed in transfected cells; host or cells: Chinese Hamster Ovary (CHO) cells, transient transfection
T1 sequence (Q13324 1-438 isoform Q13324-2): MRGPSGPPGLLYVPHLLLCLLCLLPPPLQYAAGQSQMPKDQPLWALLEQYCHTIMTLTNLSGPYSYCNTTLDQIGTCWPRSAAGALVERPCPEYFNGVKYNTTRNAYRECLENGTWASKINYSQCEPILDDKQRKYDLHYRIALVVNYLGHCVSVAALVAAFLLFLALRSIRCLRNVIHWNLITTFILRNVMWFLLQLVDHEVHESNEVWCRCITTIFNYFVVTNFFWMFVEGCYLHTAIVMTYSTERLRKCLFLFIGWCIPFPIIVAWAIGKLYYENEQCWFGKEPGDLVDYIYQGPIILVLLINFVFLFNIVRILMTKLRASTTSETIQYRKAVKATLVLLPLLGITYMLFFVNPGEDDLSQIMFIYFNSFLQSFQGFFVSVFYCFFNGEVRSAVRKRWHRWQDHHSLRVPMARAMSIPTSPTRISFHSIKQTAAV
Kind of assay: human CRHR2b cell-based cAMP assay. Conditions: cAMP assay; Table 26, compounds of Example 9; read-out: hCRHR2b Average EC50. How it is done:
CRHR agonistic activity is measured in a cell-based cAMP assay. Serial dilutions of the test peptides are made in assay buffer containing Hank's Balanced Salt Solution (HBSS, without phenol red) supplemented with 20 mM HEPES and 0.05% lactalbumin enzymatic hydrolysate (LAH) (“assay buffer”). […] A one to three dilution of the test peptides is used in both assays. Receptor over-expressing Chinese Hamster Ovary (CHO) cell line is used for the human CRHR2b assay. […] AF011406.1). Forty-eight hours after the transfection, the cells are centrifuged to remove the culture media and resuspended in fetal bovine serum containing 5% DMSO. They are cryofrozen and stored in vials in liquid nitrogen (20×10^6 cells/ml/vial). On the day of the assay, cells are thawed and resuspended in cold 30 ml culture media supplemented with 20 mM HEPES. The cells are then centrifuged to remove the media and washed once with HBSS supplemented with 20 mM HEPES. Finally, following the last centrifugation, the cells are resuspended in assay buffer. Thirty-thousand cells are used in the human CRHR2b assay for each treatment. The cells are dispensed into Costar 96-well black polystyrene half area EIA/RIA plates (Corning Incorporated, Corning, N.Y.) followed by the addition of the diluted peptides, each at a volume of 20 μL. The agonist induced cAMP levels are detected using a HTRF cAMP Dynamic 2 kit (CisBio, Bedford, Mass.). After incubation at 37° C. for 30 min, the assay is stopped by cell lysis via the addition of 20 μL of d2-labeled cAMP and followed by 20 μL of cryptate-labeled anti-cAMP antibody, as described by the manufacturer. Cellular cAMP (as a result of agonist stimulation) competes with the d2-labeled cAMP for binding to the antibody. HTRF detection is performed on an Envision plate reader (Perkin Elmer Life and Analytical Sciences, Waltham, Mass.) by measuring ratiometric emission at 620 and 665 nm after excitation at 320 nm. The data are converted to picomoles of cAMP using a standard curve obtained from the same assay performed with varying concentrations of unlabeled cAMP. […] The data are analyzed using a Curve Fitting Tool to calculate ED50. Numeric values shown below in Table 1 represent the mean of multiple runs (number of runs shown in parentheses) following the mean value±SEM.
For `CCCCCCCCCCCCCCCC(=O)N[C@@H](CCC(=O)N[C@@H](CCC(=O)NCCCC[C@H](NC(=O)[C@H](CCC(=O)O)NC(=O)[C@H](CCCCN)NC(=O)[C@H](CCC(=O)O)NC(=O)[C@H](CCC(N)=O)NC(=O)[C@H](CCCCN)NC(=O)[C@H](CCC(=O)O)NC(=O)[C@H](CCC(N)=O)NC(=O)[C@H](CCC(=O)O)NC(=O)[C@H](CC(C)C)NC(=O)[C@H](CC(C)C)NC(=O)[C@@H](NC(=O)[C@H](CCC(N)=O)NC(=O)[C@H](CC(C)C)NC(=O)[C@H](CC(C)C)NC(=O)CNC(=O)[C@@H](NC(=O)[C@@H]1CCCN1C(=O)[C@@H](NC(=O)[C@H](CC(=O)O)NC(=O)[C@H](CC(C)C)NC(=O)[C@H](CO)NC(=O)[C@H](CC(C)C)NC(=O)[C@@H](NC(=O)[C@@H](N)[C@@H](C)CC)C(C)C)C(C)C)[C@@H](C)CC)[C@@H](C)CC)C(=O)N[C@@H](CCC(N)=O)C(=O)N[C@@H](CCC(N)=O)C(=O)N[C@@H](C)C(=O)N[C@H](C(=O)N[C@H](C(=O)N[C@@H](CC(N)=O)C(=O)N[C@@H](C)C(=O)N[C@@H](CCCNC(=N)N)C(=O)N[C@H](C(=O)N[C@@H](CC(C)C)C(=O)N[C@@H](C)C(=O)N[C@@H](CCCNC(=N)N)C(=O)N[C@H](C(N)=O)C(C)C)[C@@H](C)CC)[C@@H](C)O)[C@@H](C)O)C(=O)O)C(=O)O` [Compound 31] (H-IVLSLDVPIGLLQILLEQEKQEKEK([γGlu-γGlu-Palmitoyl])QQATTNARILARV-NH2), the EC50 amounted to 3.2 nM.
`CCCCCCCCCCCCCCCC(=O)N[C@@H](CCC(=O)NCCOCCOCC(=O)NCCCC[C@H](NC(=O)[C@H](CCC(=O)O)NC(=O)[C@H](CCCCN)NC(=O)[C@H](CCC(=O)O)NC(=O)[C@H](CCC(N)=O)NC(=O)[C@H](CCCCN)NC(=O)[C@H](CCC(=O)O)NC(=O)[C@H](CCC(N)=O)NC(=O)[C@H](CCC(=O)O)NC(=O)[C@H](CC(C)C)NC(=O)[C@H](CC(C)C)NC(=O)[C@@H](NC(=O)[C@H](CCC(N)=O)NC(=O)[C@H](CC(C)C)NC(=O)[C@H](CC(C)C)NC(=O)CNC(=O)[C@@H](NC(=O)[C@@H]1CCCN1C(=O)[C@@H](NC(=O)[C@H](CC(=O)O)NC(=O)[C@H](CC(C)C)NC(=O)[C@H](CO)NC(=O)[C@H](CC(C)C)NC(=O)[C@@H](NC(=O)[C@@H](N)[C@@H](C)CC)C(C)C)C(C)C)[C@@H](C)CC)[C@@H](C)CC)C(=O)N[C@@H](CCC(N)=O)C(=O)N[C@@H](CCC(N)=O)C(=O)N[C@@H](C)C(=O)N[C@H](C(=O)N[C@H](C(=O)N[C@@H](CC(N)=O)C(=O)N[C@@H](C)C(=O)N[C@@H](CCCNC(=N)N)C(=O)N[C@H](C(=O)N[C@@H](CC(C)C)C(=O)N[C@@H](C)C(=O)N[C@@H](CCCNC(=N)N)C(=O)N[C@H](C(N)=O)C(C)C)[C@@H](C)CC)[C@@H](C)O)[C@@H](C)O)C(=O)O` [Compound 32] (H-IVLSLDVPIGLLQILLEQEKQEKEK([AEEA-γGlu-Palmitoyl])QQATTNARILARV-NH2): the EC50 amounted to 9.18 nM.
With `CCCCCCCCCCCCCCCC(=O)N[C@@H](CCC(=O)NCCCC[C@H](NC(=O)[C@H](CCCCN)NC(=O)[C@H](CCC(=O)O)NC(=O)[C@H](CCCCN)NC(=O)[C@H](CCC(=O)O)NC(=O)[C@H](CCC(N)=O)NC(=O)[C@H](CCCCN)NC(=O)[C@H](CCC(=O)O)NC(=O)[C@H](CCC(N)=O)NC(=O)[C@H](CCC(=O)O)NC(=O)[C@H](CC(C)C)NC(=O)[C@H](CC(C)C)NC(=O)[C@@H](NC(=O)[C@H](CCC(N)=O)NC(=O)[C@H](CC(C)C)NC(=O)[C@H](CC(C)C)NC(=O)CNC(=O)[C@@H](NC(=O)[C@@H]1CCCN1C(=O)[C@@H](NC(=O)[C@H](CC(=O)O)NC(=O)[C@H](CC(C)C)NC(=O)[C@H](CO)NC(=O)[C@H](CC(C)C)NC(=O)[C@@H](NC(=O)[C@@H](N)[C@@H](C)CC)C(C)C)C(C)C)[C@@H](C)CC)[C@@H](C)CC)C(=O)N[C@@H](CCC(N)=O)C(=O)N[C@@H](C)C(=O)N[C@H](C(=O)N[C@H](C(=O)N[C@@H](CC(N)=O)C(=O)N[C@@H](C)C(=O)N[C@@H](CCCNC(=N)N)C(=O)N[C@H](C(=O)N[C@@H](CC(C)C)C(=O)N[C@@H](C)C(=O)N[C@@H](CCCNC(=N)N)C(=O)N[C@H](C(N)=O)C(C)C)[C@@H](C)CC)[C@@H](C)O)[C@@H](C)O)C(=O)O` [Compound 33] (H-IVLSLDVPIGLLQILLEQEKQEKEKK([γGlu-Palmitoyl])QATTNARILARV-NH2) the figure was 8.68 nM; with `CCCCCCCCCCCCCCCC(=O)N[C@@H](CCC(=O)N[C@@H](CCC(=O)NCCCC[C@H](NC(=O)[C@H](CCCCN)NC(=O)[C@H](CCC(=O)O)NC(=O)[C@H](CCCCN)NC(=O)[C@H](CCC(=O)O)NC(=O)[C@H](CCC(N)=O)NC(=O)[C@H](CCCCN)NC(=O)[C@H](CCC(=O)O)NC(=O)[C@H](CCC(N)=O)NC(=O)[C@H](CCC(=O)O)NC(=O)[C@H](CC(C)C)NC(=O)[C@H](CC(C)C)NC(=O)[C@@H](NC(=O)[C@H](CCC(N)=O)NC(=O)[C@H](CC(C)C)NC(=O)[C@H](CC(C)C)NC(=O)CNC(=O)[C@@H](NC(=O)[C@@H]1CCCN1C(=O)[C@@H](NC(=O)[C@H](CC(=O)O)NC(=O)[C@H](CC(C)C)NC(=O)[C@H](CO)NC(=O)[C@H](CC(C)C)NC(=O)[C@@H](NC(=O)[C@@H](N)[C@@H](C)CC)C(C)C)C(C)C)[C@@H](C)CC)[C@@H](C)CC)C(=O)N[C@@H](CCC(N)=O)C(=O)N[C@@H](C)C(=O)N[C@H](C(=O)N[C@H](C(=O)N[C@@H](CC(N)=O)C(=O)N[C@@H](C)C(=O)N[C@@H](CCCNC(=N)N)C(=O)N[C@H](C(=O)N[C@@H](CC(C)C)C(=O)N[C@@H](C)C(=O)N[C@@H](CCCNC(=N)N)C(=O)N[C@H](C(N)=O)C(C)C)[C@@H](C)CC)[C@@H](C)O)[C@@H](C)O)C(=O)O)C(=O)O` [Compound 34] (H-IVLSLDVPIGLLQILLEQEKQEKEKK([γGlu-γGlu-Palmitoyl])QATTNARILARV-NH2), 4.54 nM.
`CCCCCCCCCCCCCCCC(=O)N[C@@H](CCC(=O)NCCCC[C@H](NC(=O)[C@H](CCC(N)=O)NC(=O)[C@H](CCCCN)NC(=O)[C@H](CCC(=O)O)NC(=O)[C@H](CCCCN)NC(=O)[C@H](CCC(=O)O)NC(=O)[C@H](CCC(N)=O)NC(=O)[C@H](CCCCN)NC(=O)[C@H](CCC(=O)O)NC(=O)[C@H](CCC(N)=O)NC(=O)[C@H](CCC(=O)O)NC(=O)[C@H](CC(C)C)NC(=O)[C@H](CC(C)C)NC(=O)[C@@H](NC(=O)[C@H](CCC(N)=O)NC(=O)[C@H](CC(C)C)NC(=O)[C@H](CC(C)C)NC(=O)CNC(=O)[C@@H](NC(=O)[C@@H]1CCCN1C(=O)[C@@H](NC(=O)[C@H](CC(=O)O)NC(=O)[C@H](CC(C)C)NC(=O)[C@H](CO)NC(=O)[C@H](CC(C)C)NC(=O)[C@@H](NC(=O)[C@@H](N)[C@@H](C)CC)C(C)C)C(C)C)[C@@H](C)CC)[C@@H](C)CC)C(=O)N[C@@H](C)C(=O)N[C@H](C(=O)N[C@H](C(=O)N[C@@H](CC(N)=O)C(=O)N[C@@H](C)C(=O)N[C@@H](CCCNC(=N)N)C(=O)N[C@H](C(=O)N[C@@H](CC(C)C)C(=O)N[C@@H](C)C(=O)N[C@@H](CCCNC(=N)N)C(=O)N[C@H](C(N)=O)C(C)C)[C@@H](C)CC)[C@@H](C)O)[C@@H](C)O)C(=O)O` [Compound 35] (H-IVLSLDVPIGLLQILLEQEKQEKEKQK([γGlu-Palmitoyl])ATTNARILARV-NH2): the EC50 was 404 nM.

As a reminder, the EC50 is the concentration giving half of the maximal effect.
